What was measured:
(Aβ)12 = molecular target: T1, (Aβ)12 (Homo sapiens, UniProt P05067); test: CD spectrum of (Aβ)12 after treatment with adamantane derivatives; details: for change in the CD spectrum of (Aβ)12: (Aβ)12 treated with adamantane derivative, 37° C., 190-250 nm; for effect of deforming the β-turn structure (rank order): among the adamantane derivatives tested
T1 construct: purchased Biopeptide Co; host or cells: chemical synthesis; oligomerised in house (HFIP, DMSO, HEPES pH 7.4, 37 °C, 24 h)
T1 sequence (P05067 672-713 limits assumed): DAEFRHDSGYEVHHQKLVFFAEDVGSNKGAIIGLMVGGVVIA
Experimental: (§1) (Aβ)12 was prepared according to a known method. Specifically, synthetic Aβ1-42 peptide (Biopeptide Co.) was suspended at room temperature in 100% 1, 1, 1, 3,3,3-hexafluoro-2-propanol (HFIP). After incubation for 30 minutes, HFIP was removed by evaporating under mild nitrogen flow. Then, Aβ1-42 was suspended again in dimethyl sulfoxide (DMSO) at a concentration of 5 mM and then diluted with mM 2-[4-(2-hydroxyethyl)-1-piperazinyl]ethanesulfonic acid (HEPES; pH 7.4) to a final concentration of 110 μM. The resulting solution was incubated at 37° C. for 24 hours while stirring at 500 rpm using a micro stir bar. After centrifugation at 4000 g for 30 minutes, thus obtained 56-kDa Aβ1-42 dodecamer, i.e. (Aβ)12, was concentrated (50 kDa and 100 kDa cut-off). The presence of (Aβ)12 in the concentrated sample was identified by sodium dodecyl sulfate polyacrylamide gel electrophoresis (SDS-PAGE). Its spherical structure was confirmed by atomic force microscopy. For cell culturing experiment, a 2 μM solution of (Aβ)12 was diluted using serum-free Dulbecco's modified Eagles medium (DMEM) to a final concentration of 33 nM, which corresponds to a monomer concentration of about 400 nM.
Circular dichroism (CD) spectra are useful in determining the secondary structure of proteins in solution. CD spectrum was obtained using a Jasco-810 instrument at high-sensitivity mode (5 mdeg), with a time constant of 4 s, at a scan rate of 100 nm/min, for 30 cycles. The spectrum was obtained at 37° C. in the wavelength region from 190 nm to 250 nm.
Referring to FIG. 5, when the amyloid oligomer was treated with the adamantane derivatives, the intensity of the positive band of the oligomer at 195 nm decreased and the positive band at 205 nm shifted toward longer wavelength. This means that the adamantane derivatives induce deformation of the oligomer structure by changing the configuration of the β-sheets. […] Although a detailed structure of the deformed oligomer is not clear, the decrease of intensity at 205 nm is due to the β-turn structure.

H19-7 cells = test: FLIM of single live H19-7 cell in the presence of (Aβ)12 and adamantane derivatives; format: cell-based, rat; details: for aspect ratio of single live cell: H19-7 cell treated with beta amyloid oligomer, FIG. 8; for apoptosis / toxicity of (Aβ)12 on single cell (fluorescence images): H19-7 cell, 33 nM (Aβ)12 plus adamantane derivative, FIG. 7
Experimental: as §1, with “After centrifugation at 4000 g for 30 minutes, thus obtained 56-kDa Aβ1-42 dodecamer, i.e. (Aβ)12, was concentrated (50 kDa and 100 kDa cut-off). The presence of (Aβ)12 in the concentrated sample was identified by sodium dodecyl sulfate polyacrylamide gel electrophoresis (SDS-PAGE). Its spherical structure was confirmed by atomic force microscopy.” left out
Rat hippocampal H19-7 cells were stored in DMEM containing 10% (v/v) fetal bovine serum (FBS). The cells were cultured to 80% colonies on a culture dish at low concentration in a 35° C. incubator of humidified 5% CO2 atmosphere. For fluorescence lifetime imaging microscopy (FLIM), the cells were cultured for a day after being transferred to a dish equipped with a poly-D-lysine-coated cover glass (MatTek Corporation). Before FLIM measurement, the cells were stained with 3 μM Cell Tracker Green CMFDA (Molecular Probes) solution and then incubated for 30 minutes in serum-free medium.
FLIM is a powerful tool for producing clear images of live cells. FLIM images were obtained at 40 MHz at an excitation wavelength of 467 nm (Picoquant PDL 800-B), using a band pass filter for 500-580 nm and a long pass emission filter for 473 nm (Semlock). A Nikon confocal microscope equipped with an oil-impregnated objective lens (NA 1.3) was used as a platform of an AFM scanner (PSIA). In FLIM measurement, time-correlated single photon counting is very important. […] The measurement was carried out after placing live cells on a poly-d-lysine-coated cover glass bottomed dish (MatTek Corporation) coated with and then filling serum-free medium diluted with PBS buffer.
For FLIM imaging, […] hippocampal cells (H19-7) were labeled with Cell Tracker Green having a relatively small pKa value.
In general, the degree of degeneration of neurons can be qualitatively analyzed based on the change in the aspect ratio of a single cell. The progression of neuronal death could be evaluated from the decrease in the aspect ratio.

[1] = system: LTP in hippocampal CA1 region (Schaffer collateral pathway); test: fEPSP / LTP extracellular recording in hippocampal CA1 transverse slice; design: species or system ICR mouse; details: 1 hour after HFS
Experimental: Field excitatory postsynaptic potential (fEPSP) was measured in the CA1 region (Schaffer collateral pathway) of the hippocampus of an ICR mouse using the extracellular recording technique.
Hippocampal slice for fEPSP experiment was obtained from young (4-7 weeks old) male ICR mice. The mice were anesthetized with isoflurane prior to decapitation. After quickly taking out the brain of the mouse from the skull, the brain was cooled with ice and then put in a highly concentrated sucrose solution (sucrose 201 mM, KCl 3 mM, NaH2PO4 1.25 mM, MgCl2 3 mM, CaCl2 1 mM, NaHCO3 26 mM and D-glucose 10 mM) of pH 7.3 with oxygen (95% O2 and 5% CO2) supplied thereto. After isolating the hippocampus from the brain, transverse slices were obtained by cutting with a vibratome (Ted Pella, Redding, Calif., USA) in the high-concentration sucrose solution. Before extracellular recording, the transverse slice was incubated at 30° C. in a normal artificial cerebrospinal fluid (nACSF; NaCl 126 mM, KCl 3 mM, NaH2PO4 1.25 mM, MgSO4 1.3 mM, MgSO4 1.3 mM, CaCl2 2.4 mM, NaHCO3 26 mM and D-glucose 10 mM) of […] of pH 7.3 with oxygen supplied thereto. […]
In order to induce long-term potentiation (LTP), high-frequency stimulation (HFS, 2 trains, 100 Hz, 1s duration, 15 intervals) was applied with the same strength as that of the baseline experiment. Average LTP was calculated by averaging 20 fEPSP slopes at 55 to 60 minutes after the application of the high-frequency stimulation.
Extracellular field potential was recorded using a microelectrode AC amplifier model 1800 (A-M Systems, Inc., USA). The response signal was low-pass filtered at 5 kHz, digital sampled at 10 kHz using a Digidata 1322 A/D converter, and then analyzed using pCLAMP 9.0 software (Axon Instruments). […] The difference between two means was analyzed by an unpaired Student's t-test. p<0.05 was evaluated as significant. […]

Aβ1-40 = test: In vivo test in Tg-APP/PS1 mice, ELISA of insoluble Aβ1-40; design: species or system Tg-APPswe/PS1dE9 mouse; details: single ICV injection of TAMA (1.274 μg), 24 hours, prefrontal cortex, 7.5-month-old mice
Experimental: (§2) Transgenic APPswe/PS1dE9 (Tg-APP/PS1) mouse overexpressing human APP and PS1 mutations was crossbred with hybrid mouse of C57BL6 and C3H until the same genetic background as the original Tg-APP/PS1 mouse was attained. The mice were accommodated in a cage with temperature and humidity controlled and 12 hour night/day cycles (lighting began at 7 a.m.), 1 to 3 mice per cage. The mice were freely given water and feed. All the mice were handled according to the Guideline for Animal Breeding and Management of the College of Pharmacy, Ewha Womans University. […]
(§3) Quantification of Aβ by ELISA was performed according to the literature of Lee et al. (Lee et al., Neurobiol. Dis. 22, 10-24). […]
(§4) Aβ1-40 peptide and Aβ1-42 peptide concentrations were determined using […] Human β Amyloid Aβ1-40 and Aβ1-42 colorimetric sandwich ELISA kits (Signal Select™, BioSource, Camarillo, Calif., USA).
(§5) A and B respectively show the quantity of insoluble Aβ1-40 (A) and insoluble Aβ1-42 (B) in the prefrontal cortex of a 7.5-month-old Tg-APP/PS1 mouse to which TAMA was administered represented as % mol with respect to when only the vehicle was administered. […]

Aβ1-42 = test: In vivo test in Tg-APP/PS1 mice, ELISA of insoluble Aβ1-42; design: species or system Tg-APPswe/PS1dE9 mouse; details: single ICV injection of TAMA (1.274 μg), 24 hours, prefrontal cortex, 7.5-month-old mice
Experimental: as §2, §3, §4, §5

| effect of deforming the β-turn structure (rank order) ((Aβ)12) | Compound | change in the CD spectrum of (Aβ)12 ((Aβ)12) | aspect ratio of single live cell (H19-7 cells; in 60 minutes) | apoptosis / toxicity of (Aβ)12 on single cell (fluorescence images) (H19-7 cells) | aspect ratio of single live cell (H19-7 cells; after 120 minutes) | fEPSP slope increase with respect to the baseline ([1]; 30 nM Aβ oligomer solution only, N=9) | fEPSP slope increase with respect to the baseline ([1]; 30 nM Aβ oligomer and 200 nM TAMA, N=9) | fEPSP slope increase with respect to the baseline ([1]; 200 nM TAMA without Aβ oligomer, N=4) | quantity of insoluble Aβ1-40 relative to vehicle (control) group (Aβ1-40) | quantity of insoluble Aβ1-42 relative to vehicle (control) group (Aβ1-42) |
| --- | --- | --- | --- | --- | --- | --- | --- | --- | --- | --- |
| TAMA>amantadine>memantine | CC12CC3CC(C)(C1)CC(N)(C3)C2 [memantine] | almost identical to that of the typical β-turn peptide | 1.0 | comparable to or faster than in the presence of (Aβ)12 only | – | – | – | – | – | – |
| – | Aβ oligomer: 56-kDa Aβ1-42 dodecamer prepared from synthetic Aβ1-42 peptide; neurotoxic oligomer used as challenge | – | – | – | 1.0 | 124.7±5.743% | – | – | – | – |
| TAMA>amantadine>memantine | NCC12CC3(CN)CC(CN)(C1)CC(CN)(C2)C3 [TAMA, 1,3,5,7-Tetrakis(aminomethyl)adamantane] | negative band near 195 nm | – | not affected by the toxicity of the oligomer at all | no decrease in the aspect ratio | – | 170.4±13.72% | 183.2±11.30% | 69.7% | 87.8% |

| Compound | effect of deforming the β-turn structure (rank order) ((Aβ)12) | change in the CD spectrum of (Aβ)12 ((Aβ)12) | aspect ratio of single live cell (H19-7 cells; in 60 minutes) | apoptosis / toxicity of (Aβ)12 on single cell (fluorescence images) (H19-7 cells) | aspect ratio of single live cell (H19-7 cells; after 120 minutes) | fEPSP slope increase with respect to the baseline ([1]; 30 nM Aβ oligomer solution only, N=9) | fEPSP slope increase with respect to the baseline ([1]; 30 nM Aβ oligomer and 200 nM TAMA, N=9) | fEPSP slope increase with respect to the baseline ([1]; 200 nM TAMA without Aβ oligomer, N=4) | quantity of insoluble Aβ1-40 relative to vehicle (control) group (Aβ1-40) | quantity of insoluble Aβ1-42 relative to vehicle (control) group (Aβ1-42) |
| --- | --- | --- | --- | --- | --- | --- | --- | --- | --- | --- |
| NC12CC3CC(CC(C3)C1)C2 [amantadine, Amantadine] | TAMA>amantadine>memantine | broadening of the positive band from 205 nm to 215 nm | – | – | – | – | – | – | – | – |
